According to patent US20240358692A1, “TREATMENT OF SCLERODERMA” (Aisa Pharma, Inc., priority 2023, published 2024):

System: participants with SSc-RP
Experiment: Average duration of weekly RP attacks (minutes), patient diary
Format: in vivo, human
From the text: The absolute change in average duration of weekly RP attacks from baseline to the end of each dosing period was and will be a secondary outcome variable. The sponsor-developed participant-informed diary was and will be used to record data. Average duration of weekly RP attacks is defined as the total duration of RP attacks divided by total number of RP attacks within the last 7 days of each dosing period. Total duration of RP attacks during the last 7 days of screening period divided by the total number of RP attacks will be used as baseline for the analysis of all periods. The variable will be calculated similar to frequency data as before.

[1] = Cilnidipine 10 mg, Excluding Outliers, ITT Population - Part A
[2] = Cilnidipine 10 mg, Excluding Outliers, by Baseline RCS, first RCS subgroup of table (not named), ITT Population - Part A
[3] = Cilnidipine 10 mg, by Baseline RCS, first RCS subgroup of table (not named), ITT Population - Part A
[4] = Cilnidipine 10 mg, by Baseline RCS, first subgroup of table, ITT Population - Part A
[5] = Cilnidipine 20 mg, Excluding Outliers, ITT Population - Part A
[6] = Cilnidipine 20 mg, Excluding Outliers, by Baseline RCS, first RCS subgroup of table (not named), ITT Population - Part A
[7] = Cilnidipine 20 mg, by Baseline RCS, first RCS subgroup of table (not named), ITT Population - Part A
[8] = Cilnidipine 20 mg, by Baseline RCS, first subgroup of table, ITT Population - Part A
[9] = Pooled Cilnidipine 10 mg and Cilnidipine 10 mg + Tadalafil 5 mg, Excluding Outliers, ITT Population - Part A
[10] = Pooled Cilnidipine 10 mg and Cilnidipine 10 mg + Tadalafil 5 mg, ITT Population - Part A
[11] = Pooled Cilnidipine 10 mg and Cilnidipine 10 mg + Tadalafil 5 mg, by Baseline RCS, first subgroup of table, ITT Population - Part A
[12] = Pooled Cilnidipine 10 mg and Cilnidipine 10 mg + Tadalafil 5 mg, by Baseline RCS, second subgroup of table, ITT Population - Part A
[13] = Pooled Cilnidipine 20 mg and Cilnidipine 20 mg + Tadalafil 5 mg, Excluding Outliers, ITT Population - Part A
[14] = Pooled Cilnidipine 20 mg and Cilnidipine 20 mg + Tadalafil 5 mg, Excluding Outliers, by Baseline RCS, second RCS subgroup of table (not named), ITT Population - Part A
[15] = Pooled Cilnidipine 20 mg and Cilnidipine 20 mg + Tadalafil 5 mg, by Baseline RCS, first subgroup of table, ITT Population - Part A
[16] = Pooled Cilnidipine 20 mg and Cilnidipine 20 mg + Tadalafil 5 mg, by Baseline RCS, second RCS subgroup of table (not named), ITT Population - Part A
[17] = Pooled Cilnidipine 20 mg and Cilnidipine 20 mg + Tadalafil 5 mg, by Baseline RCS, second subgroup of table, ITT Population - Part A
[18] = Pooled Cilnidipine 20 mg and Cilnidipine 20 mg + Tadalafil 5 mg, last 7 days of dosing period, ITT Part A
[19] = Pooled Cilnidipine, Excluding Outliers, ITT Population - Part A
[20] = Pooled Cilnidipine, Excluding Outliers, by Baseline RCS, first RCS subgroup of table (not named), ITT Population - Part A

Structure (SMILES): COCCOC(=O)C1=C(C)NC(C)=C(C(=O)OC/C=C/c2ccccc2)C1c1cccc([N+](=O)[O-])c1 (stereo not shown) [Cilnidipine]
- Average Duration of Weekly RP Attacks (All Attacks), Change from Baseline, Mean [1]: -8.48 min
- Average Duration of Weekly RP Attacks (All Attacks), Percent Change from Baseline, Mean [1]: −21.20%
- Average Duration of weekly symptomatic RP attacks, Mean [1]: 31.64 min
- Average Duration of weekly symptomatic RP attacks, Median [1]: 31.64 min
- Percent Change from Baseline in average duration of weekly symptomatic RP attacks, Median [1]: −34.60%
- Average Duration of weekly symptomatic RP attacks, Mean [2]: 31.64 min
- Average Duration of weekly symptomatic RP attacks, Median [2]: 31.64 min
- Change from Baseline in average duration of weekly symptomatic RP attacks, Mean [2]: -16.74 min
- Change from Baseline in average duration of weekly symptomatic RP attacks, Median [2]: -16.74 min
- Percent Change from Baseline in average duration of weekly symptomatic RP attacks, Mean [2]: −34.60%
- Percent Change from Baseline in average duration of weekly symptomatic RP attacks, Median [2]: −34.60%
- Average Duration of Weekly Symptomatic RP Attacks Change from Baseline, Mean (Cilnidipine 10 mg, ITT Part A): -16.74 min
- Average Duration of Weekly Symptomatic RP Attacks Change from Baseline, Median (Cilnidipine 10 mg, ITT Part A): -16.74 min
- Average Duration of Weekly Symptomatic RP Attacks Percent Change from Baseline, Mean (Cilnidipine 10 mg, ITT Part A): −34.60%
- Average Duration of Weekly Symptomatic RP Attacks Percent Change from Baseline, Median (Cilnidipine 10 mg, ITT Part A): −34.60%
- Average Duration of weekly symptomatic RP attacks, Mean [3]: 31.64 min
- Average Duration of weekly symptomatic RP attacks, Median [3]: 31.64 min
- Change from Baseline in average duration of weekly symptomatic RP attacks, Mean [3]: -16.74 min
- Change from Baseline in average duration of weekly symptomatic RP attacks, Median [3]: -16.74 min
- Percent Change from Baseline in average duration of weekly symptomatic RP attacks, Mean [3]: −34.60%
- Percent Change from Baseline in average duration of weekly symptomatic RP attacks, Median [3]: −34.60%
- Average Duration of Weekly RP Attacks (All Attacks), Mean [4]: 31.52 min
- Average Duration of Weekly RP Attacks (All Attacks), Median [4]: 31.52 min
- Average Duration of weekly symptomatic RP attacks, Mean (Cilnidipine 10 mg, last 7 days of dosing period, ITT Part A): 31.64 min
- Duration (change) (Cilnidipine 20 mg (n = 3)): −20%
- Average Duration of Weekly RP Attacks (All Attacks), Change from Baseline, Mean [5]: -1.09 min
- Average Duration of Weekly RP Attacks (All Attacks), Change from Baseline, Median [5]: -1.09 min
- Average Duration of Weekly RP Attacks (All Attacks), Percent Change from Baseline, Mean [5]: −24.97%
- Average Duration of Weekly RP Attacks (All Attacks), Percent Change from Baseline, Median [5]: −24.97%
- Average Duration of weekly symptomatic RP attacks, Mean [5]: 16.73 min
- Average Duration of weekly symptomatic RP attacks, Median [5]: 16.73 min
- Change from Baseline in average duration of weekly symptomatic RP attacks, Mean [5]: -3.13 min
- Change from Baseline in average duration of weekly symptomatic RP attacks, Median [5]: -3.13 min
- Percent Change from Baseline in average duration of weekly symptomatic RP attacks, Mean [5]: −31.05%
- Percent Change from Baseline in average duration of weekly symptomatic RP attacks, Median [5]: −31.05%
- Average Duration of weekly symptomatic RP attacks, Mean [6]: 16.73 min
- Average Duration of weekly symptomatic RP attacks, Median [6]: 16.73 min
- Change from Baseline in average duration of weekly symptomatic RP attacks, Mean [6]: -3.13 min
- Change from Baseline in average duration of weekly symptomatic RP attacks, Median [6]: -3.13 min
- Percent Change from Baseline in average duration of weekly symptomatic RP attacks, Mean [6]: −31.05%
- Percent Change from Baseline in average duration of weekly symptomatic RP attacks, Median [6]: −31.05%
- Average Duration of Weekly Symptomatic RP Attacks Change from Baseline, Mean (Cilnidipine 20 mg, ITT Part A): -3.13 min
- Average Duration of Weekly Symptomatic RP Attacks Change from Baseline, Median (Cilnidipine 20 mg, ITT Part A): -3.13 min
- Average Duration of Weekly Symptomatic RP Attacks Percent Change from Baseline, Mean (Cilnidipine 20 mg, ITT Part A): −31.05%
- Average Duration of Weekly Symptomatic RP Attacks Percent Change from Baseline, Median (Cilnidipine 20 mg, ITT Part A): −31.05%
- Average Duration of weekly symptomatic RP attacks, Mean [7]: 16.73 min
- Average Duration of weekly symptomatic RP attacks, Median [7]: 16.73 min
- Change from Baseline in average duration of weekly symptomatic RP attacks, Mean [7]: -3.13 min
- Change from Baseline in average duration of weekly symptomatic RP attacks, Median [7]: -3.13 min
- Percent Change from Baseline in average duration of weekly symptomatic RP attacks, Mean [7]: −31.05%
- Percent Change from Baseline in average duration of weekly symptomatic RP attacks, Median [7]: −31.05%
- Average Duration of Weekly RP Attacks (All Attacks), Mean [8]: 16.73 min
- Average Duration of Weekly RP Attacks (All Attacks), Median [8]: 16.73 min
- Average Duration of weekly symptomatic RP attacks, Median [9]: 31.64 min
- Change from Baseline in average duration of weekly symptomatic RP attacks, Mean [9]: -12.11 min
- Change from Baseline in average duration of weekly symptomatic RP attacks, Median [9]: -16.74 min
- Percent Change from Baseline in average duration of weekly symptomatic RP attacks, Mean [9]: −22.40%
- Percent Change from Baseline in average duration of weekly symptomatic RP attacks, Median [9]: −33.84%
- Average Duration of Weekly Symptomatic RP Attacks Change from Baseline, Median (Pooled Cilnidipine 10 mg and Cilnidipine 10 mg + Tadalafil 5 mg, ITT Part A): -16.74 min
- Average Duration of Weekly RP Attacks (All Attacks), Change from Baseline, Median [10]: -8.48 min
- Average Duration of Weekly RP Attacks (All Attacks), Percent Change from Baseline, Median [10]: −21.20%
- Percent Change from Baseline in average duration of weekly symptomatic RP attacks, Mean (Pooled Cilnidipine 10 mg and Cilnidipine 10 mg + Tadalafil 5 mg, by Baseline RCS, first RCS subgroup of table (not named), ITT Population - Part A): −16.67%
- Average Duration of Weekly RP Attacks (All Attacks), Change from Baseline, Mean [11]: -4.13 min
- Average Duration of Weekly RP Attacks (All Attacks), Change from Baseline, Median [11]: -4.13 min
- Average Duration of Weekly RP Attacks (All Attacks), Mean [11]: 24.76 min
- Average Duration of Weekly RP Attacks (All Attacks), Median [11]: 24.76 min
- Average Duration of Weekly RP Attacks (All Attacks), Percent Change from Baseline, Mean [11]: −9.97%
- Average Duration of Weekly RP Attacks (All Attacks), Percent Change from Baseline, Median [11]: −9.97%
- Average Duration of Weekly RP Attacks (All Attacks), Change from Baseline, Mean [12]: -20.38 min
- Average Duration of Weekly RP Attacks (All Attacks), Change from Baseline, Median [12]: -20.38 min
- Average Duration of Weekly RP Attacks (All Attacks), Mean [12]: 34.17 min
- Average Duration of Weekly RP Attacks (All Attacks), Median [12]: 34.17 min
- Average Duration of Weekly RP Attacks (All Attacks), Percent Change from Baseline, Mean [12]: −37.36%
- Average Duration of Weekly RP Attacks (All Attacks), Percent Change from Baseline, Median [12]: −37.36%
- Average Duration of weekly symptomatic RP attacks, Mean (Pooled Cilnidipine 10 mg and Cilnidipine 10 mg + Tadalafil 5 mg, last 7 days of dosing period, ITT Part A): 29.46 min
- Change from Baseline in average duration of weekly symptomatic RP attacks, Mean [13]: -7.51 min
- Change from Baseline in average duration of weekly symptomatic RP attacks, Median [13]: -3.55 min
- Percent Change from Baseline in average duration of weekly symptomatic RP attacks, Mean [13]: −16.40%
- Percent Change from Baseline in average duration of weekly symptomatic RP attacks, Median [13]: −7.30%
- Change from Baseline in average duration of weekly symptomatic RP attacks, Mean [14]: -27.00 min
- Change from Baseline in average duration of weekly symptomatic RP attacks, Median [14]: -27.00 min
- Percent Change from Baseline in average duration of weekly symptomatic RP attacks, Mean [14]: −30.00%
- Percent Change from Baseline in average duration of weekly symptomatic RP attacks, Median [14]: −30.00%
- Average Duration of Weekly RP Attacks (All Attacks), Change from Baseline, Mean [15]: 0.00 min
- Average Duration of Weekly RP Attacks (All Attacks), Change from Baseline, Median [15]: 2.16 min
- Average Duration of Weekly RP Attacks (All Attacks), Mean [15]: 15.91 min
- Average Duration of Weekly RP Attacks (All Attacks), Median [15]: 14.27 min
- Average Duration of Weekly RP Attacks (All Attacks), Percent Change from Baseline, Mean [15]: −10.70%
- Average Duration of Weekly RP Attacks (All Attacks), Percent Change from Baseline, Median [15]: 17.86%
- Change from Baseline in average duration of weekly symptomatic RP attacks, Mean [16]: -27.00 min
- Change from Baseline in average duration of weekly symptomatic RP attacks, Median [16]: -27.00 min
- Percent Change from Baseline in average duration of weekly symptomatic RP attacks, Mean [16]: −30.00%
- Percent Change from Baseline in average duration of weekly symptomatic RP attacks, Median [16]: −30.00%
- Average Duration of Weekly RP Attacks (All Attacks), Change from Baseline, Mean [17]: -19.09 min
- Average Duration of Weekly RP Attacks (All Attacks), Change from Baseline, Median [17]: -19.09 min
- Average Duration of Weekly RP Attacks (All Attacks), Mean [17]: 62.73 min
- Average Duration of Weekly RP Attacks (All Attacks), Median [17]: 62.73 min
- Average Duration of Weekly RP Attacks (All Attacks), Percent Change from Baseline, Mean [17]: −23.33%
- Average Duration of Weekly RP Attacks (All Attacks), Percent Change from Baseline, Median [17]: −23.33%
- Average Duration of weekly symptomatic RP attacks, Mean [18]: 27.98 min
- Average Duration of weekly symptomatic RP attacks, Median [18]: 22.96 min
- Duration (change) (Pooled Cilnidipine (n = 7)): 20%
- Average Duration of weekly symptomatic RP attacks, Mean [19]: 21.70 min
- Average Duration of weekly symptomatic RP attacks, Median [19]: 30.45 min
- Percent Change from Baseline in average duration of weekly symptomatic RP attacks, Median [19]: −34.60%
- Average Duration of weekly symptomatic RP attacks, Mean [20]: 21.70 min
- Average Duration of weekly symptomatic RP attacks, Median [20]: 30.45 min
- Change from Baseline in average duration of weekly symptomatic RP attacks, Mean [20]: -7.67 min
- Change from Baseline in average duration of weekly symptomatic RP attacks, Median [20]: -10.33 min
- Percent Change from Baseline in average duration of weekly symptomatic RP attacks, Mean [20]: −32.23%
- Percent Change from Baseline in average duration of weekly symptomatic RP attacks, Median [20]: −34.60%
- Average Duration of Weekly Symptomatic RP Attacks Change from Baseline, Mean (Pooled Cilnidipine, ITT Part A): -7.67 min
- Average Duration of Weekly Symptomatic RP Attacks Change from Baseline, Median (Pooled Cilnidipine, ITT Part A): -10.33 min
- Average Duration of Weekly Symptomatic RP Attacks Percent Change from Baseline, Mean (Pooled Cilnidipine, ITT Part A): −32.23%
- Average Duration of Weekly Symptomatic RP Attacks Percent Change from Baseline, Median (Pooled Cilnidipine, ITT Part A): −34.60%
